Laboratory results: article PMC6983068, “Identifying Ortholog Selective Fragment Molecules for Bacterial Glutaredoxins by NMR and Affinity Enhancement by Modification with an Acrylamide Warhead” (Molecules, 2019)

Key:
BrmGRX = target: T1, BrmGRX (Brucella melitensis, UniProt Q8YJA2); experiment: biochemical; type: binding
T1 construct: gene BMEI0184

hGRX1 = target: T2, hGRX1 (Homo sapiens, UniProt P35754); type: binding; settings: read-out: hGRX1 Kd ± S.D.
T2 sequence (P35754 2-106): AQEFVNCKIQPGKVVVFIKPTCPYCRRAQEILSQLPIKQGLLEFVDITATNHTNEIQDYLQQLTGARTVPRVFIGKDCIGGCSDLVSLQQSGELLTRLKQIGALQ

PaGRX = target: T3, PaGRX (Pseudomonas aeruginosa, UniProt Q9HU55); experiment: biochemical
T3 construct: gene grx
T3 sequence (Q9HU55 whole entry): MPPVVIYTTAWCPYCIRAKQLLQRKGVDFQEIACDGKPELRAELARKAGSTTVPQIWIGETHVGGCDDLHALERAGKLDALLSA

T1 sequence (Q8YJA2 1-92): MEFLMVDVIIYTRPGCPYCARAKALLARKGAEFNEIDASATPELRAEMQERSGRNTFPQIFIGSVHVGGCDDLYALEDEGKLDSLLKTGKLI

Row | SMILES | Kd (BrmGRX) [µM] | Kd (hGRX1) [µM] | Kd (PaGRX) [µM]
1 | O=C(O)c1cc(-c2ccco2)[nH]n1 [RK104] | 900 ± 150 | 2890 ± 470 | 720 ± 160
2 | Cn1nc(-c2ccco2)cc1C(=O)O [RK144] | 5240 ± 920 | 5420 ± 900 | 1920 ± 420
3 | O=C(O)c1ccc(-n2cccn2)cc1 [RK192] | 5560 ± 510 | 5050 ± 1270 | 5260 ± 1120
4 | O=C(O)c1ccc(-n2cccc2)cc1 [RK207] |  | 2450 ± 520 | 1900 ± 340
5 | Cc1cc2ncc(C(=O)O)c(C)n2n1 [RK208] | 2280 ± 300 | 1610 ± 190 | 560 ± 80
6 | Cn1nc(C(=O)O)cc1-c1ccccc1 [RK246] |  | 5220 ± 1160 | 8480 ± 2060
7 | CN1CCN(C)c2cc(CN)ccc21 [RK395] | 5490 ± 3220 | 1860 ± 1150 | 510 ± 370
